{
  "source": "patent US8501911B2",
  "about": "“Methods of reducing inflammation and mucus hypersecretion” (Biomarck Pharmaceuticals, Ltd, priority 1999, dated 2013)",
  "key": {"NHBE cells": {"tested_on": "NHBE cells", "assay": "Mucin secretion from NHBE cells exposed to kinase activators/reagents alone (ELISA)", "type": "cell-based, human", "details": "for Mucin secretion as percent of control: 15 min", "method": "To determine the potential role of PKC and/or PKG in the mucin secretory process, NHBE cells were exposed to the following two specific protein kinase activators: the phorbol ester, phorbol 12-myristate 13-acetate (PMA), for activation of PKC, and the nonhydrolyzable cGMP analogue, 8-Br-cGMP, for activation of PKG.\nNHBE Cell Culture—Expansion, cryopreservation, and culture of NHBE cells in the air/liquid interface were performed as described previously. See, Krunkosky et al. Briefly, NHBE cells (Clonetics, San Diego, Calif.) were seeded in vented T75 tissue culture flasks (500 cells/cm^2) and cultured until cells reached 75-80% confluence. Cells were then dissociated by trypsin/EDTA and frozen as passage-2. Air/liquid interface culture was initiated by seeding passage-2 cells (2×10^4 cells/cm^2) in […]® clear culture inserts (Costar, Cambridge, Mass.) that were thinly coated with rat tail collagen, type 1 (Collaborative Biomedical, Bedford, Mass.). Cells were cultured submerged in medium in a humidified 95% air, 5% CO2 environment for 5-7 days until nearly confluent. At that time, the air/liquid interface was created by removing the apical medium and feeding cells basalaterally. Medium was renewed daily thereafter. Cells were cultured for an additional 14 days to allow for full differentiation.\nMeasurement of Mucin Secretion by ELISA—Before collection of “base line” and “test” mucin samples, the accumulated mucus at the apical surface of the cells was removed by washing with phosphate-buffered saline, pH 7.2. To collect the base-line secretion, cells were incubated with medium alone, and secreted mucin in the apical medium was collected and reserved. Cells were rested for 24 h and then exposed to medium containing the selected stimulatory and/or inhibitory reagents (or appropriate controls), after which secreted mucin was collected and reserved as the test sample. Incubation times for the base line and the test were the same but varied depending on the test reagent utilized. Both base line and test secretions were analyzed by ELISA using an antibody capture method as known in the art. See, e.g., Harlow et al., Antibodies: A Laboratory Manual, pp. 570-573, Cold Spring Harbor Laboratory, Cold Spring Harbor, N.Y. (1988). The primary antibody for this assay was 17Q2 (Babco, Richmond, Calif.), a monoclonal antibody that reacts specifically with a carbohydrate epitope on human airway mucins. […] Wright et al., Am. J. Physiol. 271, L854-L861 (1996). Levels of mucin secretion were reported as percentage of the medium control.\nMucus secreted from the airway epithelial cells in vitro after stimulation by activators was assessed using an ELISA (antibody capture method) (E. Harlow, D. Lane. “Antibodies: A Laboratory Manual.” New York: Cold Spring Harbor Laboratory Press, 1988), wherein the collected mucus is bound directly to the ELISA plate. Mucus was detected using an antibody raised against monkey airway mucus (Lin et al. Am J Respir Cell Mol Biol 1:41, 1989)."}, "NK-92 cells": {"tested_on": "NK-92 cells", "assay": "Inhibition of release of granzyme from NK-92 cells", "type": "cell-based, human", "details": "for % Inhibition Granzyme: at 50 μM of test peptide", "method": "Measurement of NK cell granzyme secretion: Granzyme secreted from NK-92 cells was assayed by measuring hydrolysis of Nα-benzyloxycarbonyl-L-lysine thiobenzyl ester (BLT, EMD Bioscience, Inc.) essentially as described previously (Takayama H. Trenn G, Sitkovsky M V. A novel cytotoxic T lymphocyte activation assay. J. Immunol. Methods 104:183-190, 1987). An aliquot of 50 μl of supernatant was transferred to a 96-well plate, and 150 μl of 0.2 mM solution of BLT and 0.22 mM DTNB (Sigma-Aldrich Co.) in phosphate-buffered saline (PBS, pH 7.2) was added to the supernatant. Absorbance at 410 nm was measured after incubation for 30 min at room temperature. Results were expressed as percentage of total cellular enzyme content, using the amount obtained in the same number of triton X-100-lysed cells.\nBecause standard granzyme from NK-92 cells was not available to use for quantification, we measured both released and intracellular (from lysed cells) levels of granzyme, and expressed the released granzyme as a percentage of total (intracellular and released) for each. To measure intracellular granzyme from NK-92 cells, appropriate aliquots of 0.1% triton X-100-lysed cells were taken for quantification of the enzyme as described above. All data are expressed as percentage of control to minimize variability between cultures."}, "[1]": {"assay": "Solubility in 0.5 N saline", "type": "physicochemical", "details": "in 0.5 N Saline at pH 6.5"}},
  "note": "“And” between values parts separate entries of the source, which are not always exact repeats. Identical values can stand only once. Residues, ends and D or L forms follow the SMILES beside them. *: point of attachment. Myristoyl = CCCCCCCCCCCCCC(=O)*",
  "data": [
    {"molecule": "Nc1nc2c(nc(Br)n2[C@@H]2O[C@@H]3COP(=O)(O)O[C@H]3[C@H]2O)c(=O)[nH]1", "note": "[8-Br-cGMP]", "values": [
      {"measurement": "Mucin secretion as percent of control", "setting": "NHBE cells; reagent 1 μM alone", "value": 109, "unit": "%"}
    ]},
    {"molecule": "CCCCCCCCCCCCCC(=O)NCC(=O)N[C@@H](C)C(=O)N[C@@H](CCC(N)=O)C(=O)N[C@@H](Cc1ccccc1)C(=O)N[C@@H](CO)C(=O)N[C@@H](CCCCN)C(=O)N[C@H](C(=O)N[C@@H](C)C(=O)N[C@@H](C)C(=O)N[C@@H](CCCCN)C(=O)NCC(=O)N[C@@H](CCC(=O)O)C(=O)N[C@@H](C)C(=O)N[C@@H](C)C(=O)N[C@@H](C)C(=O)N[C@@H](CCC(=O)O)C(=O)N[C@@H](CCCNC(=N)N)C(=O)N1CCC[C@H]1C(=O)NCC(=O)N[C@@H](CCC(=O)O)C(=O)N[C@@H](C)C(=O)N[C@@H](C)C(=O)N[C@H](C(=O)N[C@@H](C)C(=O)O)C(C)C)[C@@H](C)O", "note": "[MANS peptide] (Myristoyl-GAQFSKTAAKGEAAAERPGEAAVA-OH; C-terminus assumed)", "values": [
      {"measurement": "Reduction in granzyme secretion relative to the PMA control reference", "setting": "NK-92 cells; 100 μM peptide, 100 nM PMA 2 hour", "value": "about 60%"},
      {"measurement": "% Inhibition Granzyme", "setting": "NK-92 cells", "value": 76.0, "unit": "%"},
      {"measurement": "solubility", "setting": "[1]", "value": "< 5", "unit": "mg/mL"}
    ]},
    {"molecule": "CCCCCCCCCCCCCC(=O)O[C@@H]1[C@@H](C)[C@@]2(O)[C@@H](C=C(CO)C[C@]3(O)C(=O)C(C)=C[C@@H]23)[C@@H]2C(C)(C)[C@]12OC(C)=O", "note": "[PMA, phorbol 12-myristate 13-acetate]", "values": [
      {"measurement": "Granzyme secretion relative to control as 100%", "setting": "NK-92 cells; 100 nM PMA, 2 hour incubation", "value": "about 220%"},
      {"measurement": "Mucin secretion as percent of control", "setting": "NHBE cells; reagent 100 nM alone", "value": "123% and 122%"},
      {"measurement": "Mucin secretion in response to PMA alone", "setting": "NHBE cells; various concentrations and times, up to 1 μM for 2 h", "value": "did not induce significant mucin secretion"}
    ]},
    {"molecule": "CCCCCCCCCCCCCC(=O)NCC(=O)N[C@H](C(=O)N[C@@H](C)C(=O)N1CCC[C@H]1C(=O)N[C@@H](C)C(=O)N[C@@H](C)C(=O)N[C@@H](CCC(=O)O)C(=O)NCC(=O)N[C@@H](C)C(=O)NCC(=O)N[C@@H](C)C(=O)N[C@@H](CCC(=O)O)C(=O)N[C@H](C(=O)N[C@@H](CCCCN)C(=O)N[C@@H](CCCNC(=N)N)C(=O)N[C@@H](C)C(=O)N[C@@H](CO)C(=O)N[C@@H](C)C(=O)N[C@@H](CCC(=O)O)C(=O)N[C@@H](C)C(=O)N[C@@H](CCCCN)C(=O)N[C@@H](CCC(N)=O)C(=O)N[C@@H](C)C(=O)N[C@@H](Cc1ccccc1)C(=O)O)C(C)C)[C@@H](C)O", "note": "[RNS peptide, reference compound] (Myristoyl-GTAPAAEGAGAEVKRASAEAKQAF-OH; C-terminus assumed)", "values": [
      {"measurement": "Effect on PMA-enhanced granzyme secretion", "setting": "NK-92 cells; any of the time points or concentrations tested", "value": "did not affect"},
      {"measurement": "% Inhibition Granzyme", "setting": "NK-92 cells", "value": 29.5, "unit": "%"},
      {"measurement": "solubility", "setting": "[1]", "value": "> 15", "unit": "mg/mL"}
    ]},
    {"molecule": "CCCCCCCCCCCCCC(=O)NCC(=O)N[C@@H](C)C(=O)N[C@@H](CCC(N)=O)C(=O)N[C@@H](Cc1ccccc1)C(=O)N[C@@H](CO)C(=O)N[C@@H](CCCCN)C(=O)N[C@H](C(=O)N[C@@H](C)C(=O)N[C@@H](C)C(=O)N[C@@H](CCCCN)C(=O)NCC(=O)N[C@@H](CCC(=O)O)C(=O)O)[C@@H](C)O", "note": "[SEQ ID NO: 13, N-myristoyl-GAQFSKTAAKGE] (Myristoyl-GAQFSKTAAKGE-OH; C-terminus assumed)", "values": [
      {"measurement": "solubility", "setting": "[1]", "value": "> 2", "unit": "mg/mL"}
    ]},
    {"molecule": "CCCCCCCCCCCCCC(=O)NCC(=O)N[C@@H](C)C(=O)N[C@@H](CCC(N)=O)C(=O)N[C@@H](Cc1ccccc1)C(=O)N[C@@H](CO)C(=O)N[C@@H](CCCCN)C(=O)N[C@H](C(=O)N[C@@H](C)C(=O)N[C@@H](C)C(=O)N[C@@H](CCCCN)C(=O)O)[C@@H](C)O", "note": "[SEQ ID NO: 15, N-myristoyl-GAQFSKTAAK] (Myristoyl-GAQFSKTAAK-OH; C-terminus assumed)", "values": [
      {"measurement": "solubility", "setting": "[1]", "value": "> 10", "unit": "mg/mL"}
    ]},
    {"molecule": "TNF-α", "values": [
      {"measurement": "Mucin secretion level, % of control", "setting": "NHBE cells; TNF-α 10 ng/ml 4 h, no secretagogue", "value": 109, "unit": "%"}
    ]}
  ]
}
